# Reference: ChEMBL document CHEMBL1201862, “PubChem BioAssay data set” (2004)
# The source made the active and inactive calls.
# Key:
# [1] = target: T1, Endoribonuclease toxin MazF (Escherichia coli K-12, UniProt P0AE70); assay: MazF toxin RNase activators, dose response, biochemical, fluorescence, single-stranded RNA substrate, uHTS hits (AID 588481); type: functional
# T1 sequence (P0AE70 whole entry): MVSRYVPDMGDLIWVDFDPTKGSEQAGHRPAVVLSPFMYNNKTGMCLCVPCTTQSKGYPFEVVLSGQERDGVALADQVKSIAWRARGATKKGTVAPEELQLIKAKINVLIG
# [2] = target: UDP-galactopyranose mutase (Mycobacterium tuberculosis, UniProt P9WIQ1); assay: Inhibitors of Mycobacterium tuberculosis UDP-galactopyranose mutase (UGM) enzyme Measured in Biochemical System Using Plate Reader - 2105-02_Inhibitor_Dose_CherryPick_Activity. [Related pubchem assays (depositor defined):AID504439]
# [3] = target: T1, Endoribonuclease toxin MazF; assay: fluorescent RNA oligo signal without MazF, dose response, counter-screen for MazEF activator project, biochemical, fluorescence, single-stranded RNase substrate (AID 588502); type: functional
# [4] = NIH-3T3 fibroblast cytotoxicity, dose response, cytotoxicity control, cell-based, fluorescence, Alamar Blue, secondary assay (AID 2327); type: functional;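 note: NIH-3T3 mouse fibroblasts cultured with fluconazole at 8 µg/mL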
# [5] = target: E3 ubiquitin-protein ligase Mdm2 (Homo sapiens, UniProt Q00987); assay: enhancers of MDM2-luciferase reporter signal, concentration-effect titration, project on inhibitors of MDM2 ubiquitin ligase, cellular assay, luminescent readout, 384-well plate format (AID 1394); type: functional;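 note: MDM2 E3 inhibitors raise luminescence so EC50 is for signal enhancement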
# [6] = C. albicans growth with fluconazole, confirmation, fluorescence, retest (AID 2467); type: functional, cell-based
# [7] = target: T2, Serine/threonine-protein phosphatase (Candida dubliniensis (strain CD36 / CBS 7987 / NCPF 3949 / NRRLY-17841) (Yeast), UniProt B9W6M3); assay: calcineurin pathway inhibitors in yeast reporter, dose response, S. cerevisiae, CDRE-lacZ, luminescence, secondary (AID 2388); type: functional, cell-based;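 note: yeast reporter cells carrying a calcineurin-responsive lacZ construct stimulated with calcium chloride; luminescent beta-galactosidase reporter signal in whole cells rather than isolated phosphatase activity; potency for inhibition where a drop in reporter signal means calcineurin blockade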
# T2 sequence (B9W6M3 whole entry): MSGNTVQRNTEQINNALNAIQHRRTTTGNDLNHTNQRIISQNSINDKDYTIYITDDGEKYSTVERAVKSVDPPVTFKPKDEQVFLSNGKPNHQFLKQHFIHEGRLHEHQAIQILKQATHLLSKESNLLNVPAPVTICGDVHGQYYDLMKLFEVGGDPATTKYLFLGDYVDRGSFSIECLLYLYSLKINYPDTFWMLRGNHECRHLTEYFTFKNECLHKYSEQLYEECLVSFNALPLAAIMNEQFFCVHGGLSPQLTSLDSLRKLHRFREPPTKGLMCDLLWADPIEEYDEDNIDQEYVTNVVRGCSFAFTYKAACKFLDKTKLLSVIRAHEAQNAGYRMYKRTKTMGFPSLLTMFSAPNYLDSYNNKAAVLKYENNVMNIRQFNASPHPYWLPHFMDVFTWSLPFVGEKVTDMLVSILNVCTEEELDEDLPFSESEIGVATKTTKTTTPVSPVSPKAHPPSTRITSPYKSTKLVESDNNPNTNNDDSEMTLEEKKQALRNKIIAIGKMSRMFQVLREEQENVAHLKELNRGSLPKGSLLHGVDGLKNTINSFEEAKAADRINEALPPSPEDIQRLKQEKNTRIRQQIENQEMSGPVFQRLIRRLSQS
# [8] = target: T3, Estrogen receptor (Homo sapiens, UniProt P03372); assay: potentiators of ERα–SRC-1 coactivator binding, dose response, biochemical, TR-FRET, ERα LBD (AID 737)
# T3 sequence (P03372 whole entry): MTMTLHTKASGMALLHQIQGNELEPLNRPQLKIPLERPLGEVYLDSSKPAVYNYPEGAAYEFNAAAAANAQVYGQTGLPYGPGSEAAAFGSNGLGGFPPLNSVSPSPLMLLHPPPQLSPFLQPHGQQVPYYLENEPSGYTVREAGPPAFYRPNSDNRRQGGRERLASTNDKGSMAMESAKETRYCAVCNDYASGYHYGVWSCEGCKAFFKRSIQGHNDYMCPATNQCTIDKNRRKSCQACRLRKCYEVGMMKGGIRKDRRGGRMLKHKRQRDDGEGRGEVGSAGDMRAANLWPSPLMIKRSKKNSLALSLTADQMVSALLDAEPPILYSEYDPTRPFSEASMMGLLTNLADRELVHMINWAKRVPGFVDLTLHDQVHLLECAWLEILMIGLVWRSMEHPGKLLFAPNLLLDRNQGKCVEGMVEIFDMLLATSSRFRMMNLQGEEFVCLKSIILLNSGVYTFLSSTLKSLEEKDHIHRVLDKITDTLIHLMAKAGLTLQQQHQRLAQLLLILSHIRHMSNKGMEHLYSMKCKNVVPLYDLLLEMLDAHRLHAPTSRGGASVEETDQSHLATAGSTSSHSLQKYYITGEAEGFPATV
# [9] = tested on: HEK293; assay: inhibitors of LMP1-driven NF-kB reporter, dose response, cell-based, HEK293, luciferase, cherry-pick (AID 588343); type: functional; details: Homo sapiens
# [10] = target: Heat shock protein HSP 90-alpha (Homo sapiens, UniProt P07900); type: functional, organism-based
# [11] = target: T2, Serine/threonine-protein phosphatase; assay: Fluorescence Cell-Based Secondary Assay to Identify Inhibitors of Calcineurin. [Related pubchem assays (depositor defined):AID1979, AID2007]; type: functional
# [12] = tested on: INS1; assay: beta cell apoptosis inhibitors, cytokine rescue, dose response, luminescence, retest (AID 449756); type: functional, cell-based; details: Rattus norvegicus;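 note: cell death triggered by IL-1 beta plus TNF-alpha plus IFN-gamma mixture; protective hits raise ATP signal compared with cytokine alone wells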
# [13] = target: ATP-dependent molecular chaperone HSP82 (Candida albicans (strain WO-1) (Yeast), UniProt C4YTQ8); assay: loss of DOC-induced GRE-beta-galactosidase reporter signal, dose response, Hsp90 inhibitor project, S. cerevisiae, luminescence (AID 2400); type: functional, cell-based;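 note: beta-galactosidase luminescence from glucocorticoid response element reporter as proxy for Hsp90 function; inhibitor potency where signal loss means Hsp90 inhibition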
# [14] = Shn3 3'UTR reporter inhibitors, dose response, cell-based, Clone20 osteoblasts, firefly luciferase, cherry-picked (AID 624132); type: functional;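 note: firefly luciferase luminescence from reporter carrying the Shn3 3'UTR in osteoblasts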
# [15] = NIH-3T3 fibroblast cytotoxicity, dose response, cytotoxicity control for antifungal single agent project, cell-based, Alamar Blue, dry powder (AID 602188); type: functional
# [16] = HepG2 cell cytotoxicity, dose response, cytotoxicity control for Shn3 inhibitor project, CellTiter-Glo, cherry-picked (AID 624134); type: functional, cell-based
# [17] = control 3'UTR Renilla luciferase suppression, dose response, counter-screen for Shn3 inhibitor project, cell-based, Clone20-Shn3RL, cherry-picked (AID 624133); type: functional
# [18] = tested on: Jurkat; assay: SAR Analysis of small molecule inhibitors of […] specific antigen receptor-induced NF-kB activation in a Jurkat cell line using a luminescence assay - Set 3. [Related pubchem assays (depositor defined):AID435022, AID435025, AID465]; type: functional, cell-based; details: Homo sapiens
# [19] = tested on: HEK293; assay: SAR Analysis of small molecule inhibitors of B-cell specific antigen receptor-induced NF-kB activation in a HEK-293T cell line using a luminescence assay - Set 2. [Related pubchem assays (depositor defined):AID435022, AID435025, AID489021]; type: functional, cell-based; details: Homo sapiens
# [20] = tested on: HEK293; assay: cytotoxicity in HEK293T NF-kB-Luc cells, SAR follow-up, cytotoxicity control for NF-kB activator project, cell-based, resazurin fluorescence (AID 493251); type: functional; details: Homo sapiens
# E3 ubiquitin-protein ligase Mdm2, sequence (Q00987 whole entry): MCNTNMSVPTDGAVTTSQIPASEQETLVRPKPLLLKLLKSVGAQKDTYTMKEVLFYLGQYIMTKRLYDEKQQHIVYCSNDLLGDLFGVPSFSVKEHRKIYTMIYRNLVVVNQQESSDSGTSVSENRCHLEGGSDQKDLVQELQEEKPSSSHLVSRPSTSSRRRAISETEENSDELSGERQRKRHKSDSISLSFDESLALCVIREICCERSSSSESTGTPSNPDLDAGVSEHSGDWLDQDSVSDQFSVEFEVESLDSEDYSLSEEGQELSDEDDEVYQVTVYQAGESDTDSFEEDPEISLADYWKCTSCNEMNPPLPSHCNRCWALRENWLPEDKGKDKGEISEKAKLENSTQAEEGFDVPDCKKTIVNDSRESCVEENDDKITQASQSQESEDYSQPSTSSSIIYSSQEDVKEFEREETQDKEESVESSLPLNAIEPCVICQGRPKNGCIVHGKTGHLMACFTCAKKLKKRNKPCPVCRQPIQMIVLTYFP
# ATP-dependent molecular chaperone HSP82, sequence (C4YTQ8 whole entry): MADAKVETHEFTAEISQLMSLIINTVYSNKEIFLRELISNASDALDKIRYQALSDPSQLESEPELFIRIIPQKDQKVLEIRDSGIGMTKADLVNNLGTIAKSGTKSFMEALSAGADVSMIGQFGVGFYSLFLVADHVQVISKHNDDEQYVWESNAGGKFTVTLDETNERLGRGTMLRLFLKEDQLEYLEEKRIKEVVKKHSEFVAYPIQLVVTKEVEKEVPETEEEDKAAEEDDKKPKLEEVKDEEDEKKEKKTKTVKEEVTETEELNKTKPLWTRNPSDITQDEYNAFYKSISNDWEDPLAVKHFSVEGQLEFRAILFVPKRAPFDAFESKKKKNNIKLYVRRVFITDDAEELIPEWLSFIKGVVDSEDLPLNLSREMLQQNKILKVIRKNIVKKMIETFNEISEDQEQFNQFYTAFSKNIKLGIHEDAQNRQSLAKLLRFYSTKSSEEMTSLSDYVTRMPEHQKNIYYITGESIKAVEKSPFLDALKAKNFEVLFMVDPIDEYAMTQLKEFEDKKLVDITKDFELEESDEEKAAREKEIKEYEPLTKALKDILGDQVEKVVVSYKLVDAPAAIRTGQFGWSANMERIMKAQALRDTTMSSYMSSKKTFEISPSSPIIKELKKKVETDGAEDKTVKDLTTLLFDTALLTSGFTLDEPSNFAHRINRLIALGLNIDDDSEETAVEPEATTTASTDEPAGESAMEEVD
# UDP-galactopyranose mutase, sequence (P9WIQ1 whole entry): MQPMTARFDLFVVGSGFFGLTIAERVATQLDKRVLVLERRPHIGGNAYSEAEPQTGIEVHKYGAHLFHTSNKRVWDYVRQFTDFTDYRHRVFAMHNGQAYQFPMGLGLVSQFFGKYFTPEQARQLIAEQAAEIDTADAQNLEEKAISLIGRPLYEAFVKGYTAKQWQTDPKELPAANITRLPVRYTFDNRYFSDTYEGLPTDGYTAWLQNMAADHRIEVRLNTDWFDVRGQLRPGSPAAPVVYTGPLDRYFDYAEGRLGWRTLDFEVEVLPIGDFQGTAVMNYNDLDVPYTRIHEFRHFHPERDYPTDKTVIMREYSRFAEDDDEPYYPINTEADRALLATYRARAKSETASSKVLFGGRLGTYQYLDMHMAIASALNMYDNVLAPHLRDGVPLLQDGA
structure (smiles),measurement,setting,value
Cc1cccc(N2C(=O)NC(=O)/C(=C/c3cc4c(cc3[N+](=O)[O-])OCO4)C2=O)c1,EC50,[1],> 99 µM (inactive)
same,AC50,[2],45 µM (active)
same,EC50,[3],> 99 µM (inactive)
O=C(Nc1nc(-c2ccccn2)cs1)c1ccc(Br)s1,EC50,[4],> 160 µM (inactive)
same,EC50,[5],22.7 µM (not active)
same,EC50,[6],1.81 µM (active)
same,EC50,[7],> 180 µM (inactive)
same,EC50,[8],24.5 µM (not active)
same,AC50,[9],637 nM (active)
same,AC50,[10],1.83 µM (active)
same,EC50,[11],15.7 µM (active)
same,AC50,[12],1.03 µM (active)
same,EC50,[13],4.31 µM (active)
same,AC50,[14],1 µM (active)
same,AC50,[15],991 nM (active)
same,AC50,[16],3.78 µM (active)
same,AC50,[17],743 nM (active)
CCOc1ccccc1NC(=O)CCc1nc(-c2ccc(C(C)(C)C)cc2)no1,IC50,[18],1.02 µM (active)
same,IC50,[19],460 nM (active)
same,IC50,[20],> 80 µM (inactive)
